Data from patent US4064169A, “Bis-(meta-amidinophenoxy)-compounds and pharmacologically acceptable acid addition salts thereof” (Eisai Co., Ltd., priority 1976, dated 1977).
Counter-ions that a name gives are not always drawn. Like-named read-outs stand apart in the source and are kept apart here.

Assays:
Format in all cases: cell-based
[1] = system: Klebsiella pneumonial NO-1; experiment: Antibacterial Test (agar dilution M.I.C.); settings: NO1, Table 5, 37° C., 18 hours
Experimental: (§1) A compound under test was dissolved in aseptic water to prepare a two fold dilution series. Each 1 milliliter of the solution was taken in a petri dish. Nine ml of infusion agar medium (Difco) was added to the solution, thereby preparing the agar plate for test. A pre-culture of each test strain in Tripticase soy broth medium (BBL) at 37° C. for 18 hours was streaked on the above-mentioned agar plate, and the said agar plate was incubated at 37° C. for 18 hours to determine the minimal inhibitory concentration (M.I.C.).

[2] = system: Escherichia coli NIHJ JC-1; experiment: Antibacterial Test (agar dilution M.I.C.); settings: NIHJJC1, Table 5, 37° C., 18 hours
Experimental: as §1

[3] = system: Streptococcus hemolyticus Y-73-5; experiment: Antibacterial Test (agar dilution M.I.C.); settings: Streptococcus pyogenes, Y735; Table 5; 37° C., 18 hours
Experimental: as §1

Proteus mirabilis OM-1 = experiment: Antibacterial Test (agar dilution M.I.C.); settings: OM1, Table 5, 37° C., 18 hours
Experimental: as §1

[4] = system: Staphylococcus aureus 13-6; experiment: Antibacterial Test (agar dilution M.I.C.); settings: 136, Table 5, 37° C., 18 hours
Experimental: as §1

[5] = system: Salmonella typhimurium 1406; experiment: Antibacterial Test (agar dilution M.I.C.); settings: Salmonella enterica, Table 5, 37° C., 18 hours
Experimental: as §1

[6] = system: Staphylococcus aureus 209-P JO-1; experiment: Antibacterial Test (agar dilution M.I.C.); settings: Table 5, 37° C., 18 hours
Experimental: as §1

Pseudomonas aeruginosa = experiment: Antibacterial Test (agar dilution M.I.C.); settings: Table 5, 37° C., 18 hours
Experimental: as §1

Escherichia coli E-15 = experiment: Antibacterial Test (agar dilution M.I.C.); settings: E15, Table 5, 37° C., 18 hours
Experimental: as §1

fungi of Table 4 = experiment: Antifungal test when a serum is added (summary); settings: 10% and 30% by volume horse serum
Experimental: (§2) Minimal inhibitory concentration (M.I.C.) was determined by preparing the agar plate medium in the same manner of the preceding pharmacological test 1, except for the addition of the horse serum. The concentration of the component in the medium was finally corrected, so that it may amount to the concentration of the component when the horse serum was not added.

[7] = system: Candida albicans AHU 3656; experiment: Antifungal test when a serum is added; settings: 27° C, read-out: M.I.C. of serum added
Experimental: (§3) Respective agar plates were prepared by dissolving compounds under test in aseptic water to make a two fold dilution series, taking each 1 milliliter of said diluted solutions and 9 ml of Sabouraud medium into a petri dish, and sufficiently admixing the same.
(§4) On the other hand, an inoculum was prepared by cultivating an examined fungus (microorganism) on the Sabouraud slant medium and suspending two loopful of the incubated fungus in 10 ml of sterilized physiological saline water.
(§5) One loopful of the inoculum was streaked on the above-mentioned agar plate. After the agar plate was incubated at a defined temperature for a predetermined period of time to determine the minimal inhibitory concentration (M.I.C.).
as §2
(§6) Incubation temperature: […]

[8] = system: Candida albicans IFM 4080; experiment: Antifungal test when a serum is added; settings: 27° C, read-out: M.I.C. of serum added
Experimental: as §3, §4, §5, §2, §6

Candida utilis AHU 3053 = experiment: Antifungal test when a serum is added; settings: Williopsis jadinii, 27° C, read-out: M.I.C. of serum added
Experimental: as §3, §4, §5, §2, §6

[9] = system: Candida albicans Yu-1200 IFM 4020; experiment: Antifungal test when a serum is added; settings: 27° C, read-out: M.I.C. of serum added
Experimental: as §3, §4, §5, §2, §6

Candida Krusei AHU 3993 = experiment: Antifungal test when a serum is added; settings: Pichia kudriavzevii, 27° C, read-out: M.I.C. of serum added
Experimental: as §3, §4, §5, §2, §6

Cryptococcus neoformans = experiment: Antifungal test when a serum is added; settings: 27° C, read-out: M.I.C. of serum added
Experimental: as §3, §4, §5, §2, §6

[10] = system: Candida tropicalis AHU 3071; experiment: Antifungal test when a serum is added; settings: 27° C, read-out: M.I.C. of serum added
Experimental: as §3, §4, §5, §2, §6

[11] = system: Candida albicans NAKAGAWA IFM 4017; experiment: Antifungal test when a serum is added; settings: 27° C, read-out: M.I.C. of serum added
Experimental: as §3, §4, §5, §2, §6

[12] = system: Candida guilliermondii AHU 3654; experiment: Antifungal test when a serum is added; settings: Meyerozyma guilliermondii, 27° C, read-out: M.I.C. of serum added
Experimental: as §3, §4, §5, §2, §6

Candida albicans = experiment: Anti-candida activity (summary)
Experimental: as §3, §4, §5
Incubation time: 3 days (72 hours)

[13] = 168 h, 10 % horse serum, 7 days
[14] = 168 h, 30 % horse serum, 7 days

N=C(N)c1cccc(OCC2CCC(COc3cccc(C(=N)N)c3)CC2)c1 (stereo not drawn) [Compound A, 1,4-Bis-(m,m'-amidinophenoxymethyl)-cyclohexane-dihydrochloride]
MIC [1]: 200 µg/mL
MIC [2]: 100 µg/mL
MIC [3]: 6.25 µg/mL
MIC (Proteus mirabilis OM-1): > 200 µg/mL
MIC [4]: 6.25 µg/mL
MIC [5]: 200 µg/mL
MIC [6]: 3.13 µg/mL
MIC (Pseudomonas aeruginosa): > 200 µg/mL
MIC (Escherichia coli E-15): 200 µg/mL
antifungal activity with serum compared with no serum (fungi of Table 4): nearly same as that when the horse serum was not added
difference of antifungal activity with vs without horse serum (fungi of Table 4): 1 - 2 dilution step(s)
MIC ([7]; AHU3656, 72 h, 0 % horse serum, 3 days): 3.13 µg/mL
MIC ([7]; AHU3656, 72 h, 10 % horse serum, 3 days): 25 µg/mL
MIC ([7]; AHU3656, 72 h, 30 % horse serum, 3 days): 25 µg/mL
MIC ([7]; AHU3656, 168 h, 0 % horse serum, 7 days): 6.25 µg/mL
MIC ([7]; AHU3656, 168 h, 10 % horse serum, 7 days): 25 µg/mL
MIC ([7]; AHU3656, 168 h, 30 % horse serum, 7 days): 25 µg/mL
MIC ([8]; IFM4080, 72 h, 0 % horse serum, 3 days): 3.13 µg/mL
MIC ([8]; IFM4080, 72 h, 10 % horse serum, 3 days): 12.5 µg/mL
MIC ([8]; IFM4080, 72 h, 30 % horse serum, 3 days): 12.5 µg/mL
MIC ([8]; IFM4080, 168 h, 0 % horse serum, 7 days): 6.25 µg/mL
MIC ([8]; IFM4080, 168 h, 10 % horse serum, 7 days): 12.5 µg/mL
MIC ([8]; IFM4080, 168 h, 30 % horse serum, 7 days): 12.5 µg/mL
MIC (Candida utilis AHU 3053; AHU3053, 72 h, 0 % horse serum, 3 days): 3.13 µg/mL
MIC (Candida utilis AHU 3053; AHU3053, 72 h, 10 % horse serum, 3 days): 3.13 µg/mL
MIC (Candida utilis AHU 3053; AHU3053, 72 h, 30 % horse serum, 3 days): < 0.8 µg/mL
MIC (Candida utilis AHU 3053; AHU3053, 168 h, 0 % horse serum, 7 days): 3.13 µg/mL
MIC (Candida utilis AHU 3053; AHU3053, 168 h, 10 % horse serum, 7 days): 6.25 µg/mL
MIC (Candida utilis AHU 3053; AHU3053, 168 h, 30 % horse serum, 7 days): < 0.8 µg/mL
MIC ([9]; YU1200IFM4020, 72 h, 0 % horse serum, 3 days): < 1.56 µg/mL
MIC ([9]; YU1200IFM4020, 72 h, 10 % horse serum, 3 days): 6.25 µg/mL
MIC ([9]; YU1200IFM4020, 72 h, 30 % horse serum, 3 days): 25 µg/mL
MIC ([9]; YU1200IFM4020, 168 h, 0 % horse serum, 7 days): 3.13 µg/mL
MIC ([9]; YU1200IFM4020, 168 h, 10 % horse serum, 7 days): 6.25 µg/mL
MIC ([9]; YU1200IFM4020, 168 h, 30 % horse serum, 7 days): 25 µg/mL
MIC (Candida Krusei AHU 3993; 72 h, 0 % horse serum, 3 days): > 100 µg/mL
MIC (Candida Krusei AHU 3993; 72 h, 10 % horse serum, 3 days): 200 µg/mL
MIC (Candida Krusei AHU 3993; 72 h, 30 % horse serum, 3 days): 100 µg/mL
MIC (Candida Krusei AHU 3993; 168 h, 0 % horse serum, 7 days): > 100 µg/mL
MIC (Candida Krusei AHU 3993; [13]): > 200 µg/mL
MIC (Candida Krusei AHU 3993; [14]): 100 µg/mL
MIC (Cryptococcus neoformans; 72 h, 0 % horse serum, 3 days): 3.13 µg/mL
MIC (Cryptococcus neoformans; 72 h, 10 % horse serum, 3 days): 6.25 µg/mL
MIC (Cryptococcus neoformans; 72 h, 30 % horse serum, 3 days): 12.5 µg/mL
MIC (Cryptococcus neoformans; 168 h, 0 % horse serum, 7 days): 3.13 µg/mL
MIC (Cryptococcus neoformans; [13]): 12.5 µg/mL
MIC (Cryptococcus neoformans; [14]): 12.5 µg/mL
MIC ([10]; AHU3071, 72 h, 0 % horse serum, 3 days): 3.13 µg/mL
MIC ([10]; AHU3071, 72 h, 10 % horse serum, 3 days): 6.25 µg/mL
MIC ([10]; AHU3071, 72 h, 30 % horse serum, 3 days): 12.5 µg/mL
MIC ([10]; AHU3071, 168 h, 0 % horse serum, 7 days): 3.13 µg/mL
MIC ([10]; AHU3071, 168 h, 10 % horse serum, 7 days): 6.25 µg/mL
MIC ([10]; AHU3071, 168 h, 30 % horse serum, 7 days): 12.5 µg/mL
MIC ([11]; 72 h, 0 % horse serum, 3 days): 3.13 µg/mL
MIC ([11]; 72 h, 10 % horse serum, 3 days): 25 µg/mL
MIC ([11]; 72 h, 30 % horse serum, 3 days): 6.25 µg/mL
MIC ([11]; 168 h, 0 % horse serum, 7 days): 3.13 µg/mL
MIC [11, 13]: 25 µg/mL
MIC [11, 14]: 6.2 µg/mL
MIC ([12]; AHU3654, 72 h, 0 % horse serum, 3 days): 25 µg/mL
MIC ([12]; AHU3654, 72 h, 10 % horse serum, 3 days): 25 µg/mL
MIC ([12]; AHU3654, 72 h, 30 % horse serum, 3 days): 50 µg/mL
MIC ([12]; AHU3654, 168 h, 0 % horse serum, 7 days): 25 µg/mL
MIC ([12]; AHU3654, 168 h, 10 % horse serum, 7 days): 25 µg/mL
MIC ([12]; AHU3654, 168 h, 30 % horse serum, 7 days): 50 µg/mL
anti-candida activity compared with nystatin (Candida albicans): more excellent anti-candida activity than that of the nystatin
